Experimental data published in patent US20170050957A1, “4-AMINO-6-(HETEROCYCLIC)PICOLINATES AND 6-AMINO-2-(HETEROCYCLIC)PYRIMIDINE-4-CARBOXYLATES AND THEIR USE AS HERBICIDES” (Dow AgroSciences LLC, priority 2013, published 2017).
Where two headings read alike, the source gives them in different places.

Legend:
[1] = tested on: Key Broadleaf Weed and Crop Species; assay: Post-emergent Test II herbicidal activity (Table 15); assay type: in vivo; conditions: post-emergence, 336 h, 14 d; for pest or weed control at 35 g/ha: 35 g ai/ha; for pest or weed control at 70 g/ha: 70 g ai/ha; for pest or weed control at 140 g/ha: 140 g ai/ha
Method in brief: (§1)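 Greenhouse-grown seedlings at first/second true leaf receive a track spray at 187 L/ha, using a highest rate plus two-fold serial dilutions down to 1/16×. Watering is by subirrigation to avoid wash-off. Percent injury (0-100) is judged by eye at 14 d against untreated plants.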

[2] = tested on: Key Grass and Sedge Weeds as well as Grass Crops; assay: Post-emergent Test II herbicidal activity (Table 16); assay type: in vivo; conditions: post-emergence, 336 h; for pest or weed control at 35 g/ha: 35 g ai/ha; for pest or weed control at 70 g/ha: 70 g ai/ha; for pest or weed control at 140 g/ha: 140 g ai/ha
Method in brief: as §1

[3] = Abutilon theophrasti, velvetleaf (Abutilon theophrasti), read-out: Visual Growth Reduction (%) 14 Days After Application, ABUTH
[4] = Amaranthus retroflexus, redroot pigweed (Amaranthus retroflexus), read-out: Visual Growth Reduction (%) 14 Days After Application, AMARE
[5] = Brassica napus, oilseed rape, canola (Brassica napus), read-out: Visual Growth Reduction (%) 14 Days After Application, BRSNN
[6] = Chenopodium album, lambsquarters (Chenopodium album), read-out: Visual Growth Reduction (%) 14 Days After Application, CHEAL
[7] = Euphorbia heterophylla, wild poinsettia (Euphorbia heterophylla), read-out: Visual Growth Reduction (%) 14 Days After Application, EPHHL
[8] = Helianthus annuus, sunflower (Helianthus annuus), read-out: Visual Growth Reduction (%) 14 Days After Application, HELAN
[9] = Cyperus esculentus, yellow nutsedge (Cyperus esculentus), 14 d, read-out: Visual Growth Reduction (%) 14 Days After Application, CYPES
[10] = Echinochloa crus-galli, barnyardgrass (Echinochloa crus-galli), 14 d, read-out: Visual Growth Reduction (%) 14 Days After Application, ECHCG
[11] = Oryza sativa, rice (Oryza sativa), 14 d, read-out: Visual Growth Reduction (%) 14 Days After Application, ORYSA
[12] = Setaria faberi, giant foxtail (Setaria faberi), 14 d, read-out: Visual Growth Reduction (%) 14 Days After Application, SETFA
[13] = Triticum aestivum, wheat, spring (Triticum aestivum), 14 d, read-out: Visual Growth Reduction (%) 14 Days After Application, TRZAS
[14] = Zea mays, maize, corn (Zea mays), 14 d, read-out: Visual Growth Reduction (%) 14 Days After Application, ZEAMX
[15] = Cyperus esculentus, yellow nutsedge (Cyperus esculentus), 14 days after application, read-out: Visual Growth Reduction (%) 14 Days After Application CYPES
[16] = Echinochloa crus-galli, barnyardgrass (Echinochloa crus-galli), 14 days after application, read-out: Visual Growth Reduction (%) 14 Days After Application ECHCG
[17] = Oryza sativa, rice (Oryza sativa), 14 days after application, read-out: Visual Growth Reduction (%) 14 Days After Application ORYSA
[18] = Setaria faberi, giant foxtail (Setaria faberi), 14 days after application, read-out: Visual Growth Reduction (%) 14 Days After Application SETFA
[19] = Triticum aestivum, wheat, spring (Triticum aestivum), 14 days after application, read-out: Visual Growth Reduction (%) 14 Days After Application TRZAS
[20] = Zea mays, maize, corn (Zea mays), 14 days after application, read-out: Visual Growth Reduction (%) 14 Days After Application ZEAMX

melting point | SMILES | pest or weed control at 35 g/ha [1, 3] | pest or weed control at 70 g/ha [1, 3] | pest or weed control at 140 g/ha [1, 3] | pest or weed control at 35 g/ha [1, 4] | pest or weed control at 70 g/ha [1, 4] | pest or weed control at 140 g/ha [1, 4] | pest or weed control at 35 g/ha [1, 5] | pest or weed control at 70 g/ha [1, 5] | pest or weed control at 140 g/ha [1, 5] | pest or weed control at 35 g/ha [1, 6] | pest or weed control at 70 g/ha [1, 6] | pest or weed control at 140 g/ha [1, 6] | pest or weed control at 35 g/ha [1, 7] | pest or weed control at 70 g/ha [1, 7] | pest or weed control at 140 g/ha [1, 7] | pest or weed control at 35 g/ha [1, 8] | pest or weed control at 70 g/ha [1, 8] | pest or weed control at 140 g/ha [1, 8] | also measured
100 to 103 °C | COC(=O)c1nc(-c2cccc3occc23)c(F)c(N)c1Cl [Compound 2.15] | 45 to 59% | 75 to 84% | 95 to 100% | 95 to 100% | 95 to 100% | 95 to 100% | 45 to 59% | 75 to 84% | 85 to 94% | 95 to 100% | 95 to 100% | 95 to 100% | 0 to 29% | 0 to 29% | 0 to 29% | 45 to 59% | 75 to 84% | 75 to 84% | pest or weed control at 35 g/ha [2, 9]: 0 to 29%; pest or weed control at 70 g/ha [2, 9]: 0 to 29%; pest or weed control at 140 g/ha [2, 9]: 0 to 29%; pest or weed control at 35 g/ha [2, 10]: 0 to 29%; pest or weed control at 70 g/ha [2, 10]: 45 to 59%; pest or weed control at 140 g/ha [2, 10]: 75 to 84%; pest or weed control at 35 g/ha [2, 11]: 0 to 29%; pest or weed control at 70 g/ha [2, 11]: 0 to 29%; pest or weed control at 140 g/ha [2, 11]: 0 to 29%; pest or weed control at 35 g/ha [2, 12]: 0 to 29%; pest or weed control at 70 g/ha [2, 12]: 0 to 29%; pest or weed control at 140 g/ha [2, 12]: 0 to 29%; pest or weed control at 35 g/ha [2, 13]: 0 to 29%; pest or weed control at 70 g/ha [2, 13]: 0 to 29%; pest or weed control at 140 g/ha [2, 13]: 0 to 29%; pest or weed control at 35 g/ha [2, 14]: 95 to 100%; pest or weed control at 70 g/ha [2, 14]: 95 to 100%; pest or weed control at 140 g/ha [2, 14]: 95 to 100%
185 to 189 °C | COC(=O)c1nc(-c2ccc3ccsc3c2)c(F)c(N)c1Cl [Compound 3.12] | 60 to 74% | 95 to 100% | 95 to 100% | 60 to 74% | 60 to 74% | 85 to 94% | 0 to 29% | 0 to 29% | 30 to 44% | 95 to 100% | 95 to 100% | 95 to 100% | 60 to 74% | 60 to 74% | 85 to 94% | 85 to 94% | 85 to 94% | 85 to 94% | pest or weed control at 35 g/ha [2, 15]: 0 to 29%; pest or weed control at 70 g/ha [2, 15]: 0 to 29%; pest or weed control at 140 g/ha [2, 15]: 0 to 29%; pest or weed control at 35 g/ha [2, 16]: 85 to 94%; pest or weed control at 70 g/ha [2, 16]: 85 to 94%; pest or weed control at 140 g/ha [2, 16]: 85 to 94%; pest or weed control at 35 g/ha [2, 17]: 0 to 29%; pest or weed control at 70 g/ha [2, 17]: 0 to 29%; pest or weed control at 140 g/ha [2, 17]: 0 to 29%; pest or weed control at 35 g/ha [2, 18]: 0 to 29%; pest or weed control at 70 g/ha [2, 18]: 0 to 29%; pest or weed control at 140 g/ha [2, 18]: 0 to 29%; pest or weed control at 35 g/ha [2, 19]: 0 to 29%; pest or weed control at 70 g/ha [2, 19]: 0 to 29%; pest or weed control at 140 g/ha [2, 19]: 0 to 29%; pest or weed control at 35 g/ha [2, 20]: 95 to 100%; pest or weed control at 70 g/ha [2, 20]: 95 to 100%; pest or weed control at 140 g/ha [2, 20]: 95 to 100%
